Assay: Compound was tested for inhibition of [3H]WIN-35428 binding at the dopamine transporter in brain from guinea pig striatal membrane

Row | Structure (SMILES) | IC50 [nM]
1 | OC1(c2ccc(Cl)cc2)c2ccccc2C2=NCCCCN21 (configuration not stated) [7-(4-Chloro-phenyl)-2,4,5,7-tetrahydro-3H-[1,3]diazepino[2,1-a]isoindol-7-ol] | 2.7
2 | OC1(c2ccc(Cl)cc2)c2ccccc2C2=NCCCN21 (configuration not stated) [9-(4-Chloro-phenyl)-1,2,3,9-tetrahydro-4,9a-diaza-fluoren-9-ol] | 4.2

— BindingDB's records for doi:10.1021/jm960288w (Drew University, 1997)
